Measurements as given in ChEMBL document CHEMBL1143075, “Taxanes from Shells and Leaves of Corylus avellana” (2008).

System: SK-MES-1
Assay: Inhibition of metaphase to anaphase transition in human SKMes1 cells at 10 nM
Assay type: functional

## CC(=O)O[C@H]1C(=O)[C@@]2(C)[C@H]([C@H](OC(=O)c3ccccc3)[C@]3(O)C[C@H](OC(=O)[C@H](O)[C@@H](NC(=O)c4ccccc4)c4ccccc4)C(C)=C1C3(C)C)[C@]1(OC(C)=O)CO[C@@H]1C[C@@H]2O [PACLITAXEL]
  Ratio: 0.026
